The results in this text go back to publication PMC8876276 (Pharmaceutics, 2022).

The test system of assay [1] is GLP1R association with early endosomal-associated antigen 1 (EEA1). The assay can be described thus: GLP1R colocalization with early endosome marker EEA1, confocal microscopy, GLP1R-HEK293 cells. The following applies: 100 nM, 30 min; Pearson's correlation coefficient, 3 independent experiments; Figure 5d. Type of assay: cell-based.
Method: For immunofluorescence microscopy, GLP1R-HEK293 cells were seeded at a density of 25,000 cells/well in 96-well imaging plates (Greiner Bio-One) coated with poly-D-lysine. […] Twenty-four hours later, the cells were washed once with Optimem + Glutamax (Thermo Fisher Scientific, Watham, MA, USA) + 0.1% bovine serum albumin (BSA) (Sigma-Aldrich, St. Louis, MO, USA), and then incubated with Optimem + 0.1% BSA for 15 min at 37 °C. Compounds were diluted in Optimem + 0.1% BSA and cell incubations were performed at 37 °C for the timepoints indicated. The compounds were removed and the cells were washed three times with phosphate-buffered saline (PBS) prior to fixation for immunofluorescence microscopy or electron microscopy/NanoSIMS as described below. […]
Analysis of confocal microscopy micrographs was performed using scripts developed in Columbus analysis software (PerkinElmer, Waltham, MA, USA). […] Mean fluorescence intensity for the GLP1R staining was measured from this cell membrane ROI. Fluorescence intensities were normalized to those measured from untreated cells and expressed as mean per cell per well. For colocalization analyses, Pearson’s correlation co-efficient was calculated for the correlation between the red and green channels and expressed as mean per cell per well. […]
Pearson’s correlation co-efficient for GLP1R colocalization with EEA1 was calculated from cytoplasmic ROIs (d). […]
The test system of assay [2] is GLP1R localization with the late endosome marker LAMP1. The assay can be described thus: GLP1R colocalization with late endosome marker LAMP1, confocal microscopy, GLP1R-HEK293 cells. It is filed as cell-based. As to conditions: 100 nM, 30 min; Pearson's correlation coefficient, 3 independent experiments; Figure 6d. An excerpt: Nuclei were counterstained with DAPI. Nuclei were counterstained with DAPI.

On to exenatide, for which, in assay [1], the “GLP1R colocalization with EEA1” value was “GLP1R colocalization with EEA1 was observed”. The “GLP1R colocalization with LAMP1” value in assay [2] is “increase in the GLP1R colocalization with LAMP1”.
